Source: publication PMC7998705, “Dose-Dependent Solubility–Permeability Interplay for Poorly Soluble Drugs under Non-Sink Conditions” (Pharmaceutics, 2021)
Converted amounts (≈) assume the structure as drawn.

How the values were obtained:
[1] = Theoretical calculation about permeability; settings: for Papp: not told; for Calculated Pm (app): Equation (3); for Calculated Daq (app): Equation (5), hUWL (app) = 100 μm; for Calculated Pm (U): pH 6.5 buffer; for Apparent permeability and flux reduced to (fraction): calculated, sink conditions, donor 5 μg/mL
Experimental: Based on Fick’s first law, flux in the drug permeation can be expressed as shown in Equation (1): [36, 43]
As described in the introduction, overall permeation can be divided into membrane permeation and UWL permeation.
Pm (app) is calculated using the fraction of UFDs (FU) as shown in Equation (3):(3) Pm (app)= FUPm (U) where Pm (U) is the intrinsic permeability of UFDs.
PUWL (app) can be expressed using the apparent aqueous diffusivity (Daq (app)) from Fick’s first law as shown in Equation (5): (5) PUWL (app)= Daq (app)/hUWL (app) where hUWL (app) is the apparent thickness of the UWL. When there are no solubilizer additives in the drug formulation or test media in the permeability measurements, Equation (5) can be described as shown in Equation (6):(6) PUWL (U)= Daq (U)/hUWL (U) where hUWL (U) is the intrinsic thickness of the UWL and Daq (U) is the intrinsic aqueous diffusivity of UFDs. The thickness of the UWL can be determined based on rotation speed in the flux experiment. If the rotation speed is constant, we can assume that the thickness of the UWL is constant, independent of the addition of solubilizer additives, as shown in Equation (7):(7) hUWL (app)= hUWL (U)
Substituting hUWL (app) of Equation (5) and hUWL (U) of Equation (6) for Equation (7), PUWL (app) is described as shown in Equation (8):(8) PUWL (app)= PUWL (U)×Daq (app)/Daq (U)
The apparent aqueous diffusivity (Daq (app)) is a combined total of each fraction of aqueous diffusivity as shown in Equation (9):(9) Daq (app)= FUDaq (U) + (1−FU)Daq (B) where FU is the same fraction of UFDs as in Equation (4) and Daq (B) is the aqueous diffusivity of drug molecules bound to solubilizer additives. PUWL (app) can be calculated by Equations (6), (8), and (9) as shown in Equation (10):(10) PUWL (app)= 1/hUWL (app) {FUDaq(U) + (1−FU)Daq (B)}
Using the MW of the model compounds, each Daq (U) was calculated (calculated Daq (U) in Table 4). The UWL thickness (hUWL (app) or hUWL (U)) for the MicroFlux^TM measurements in this study was estimated to be around 100 μm based on previous studies. The intrinsic UWL permeability of UFDs (PUWL (U)) was then calculated by Equation (6) (calculated PUWL (U) in Table 4).
The apparent membrane permeability (Pm (app)) was calculated by Equation (3) using the fraction of UFDs (FU) in Table 3 and Pm (U) (calculated Pm (app) in Table 5). […] The apparent aqueous diffusivity (Daq (app)) was calculated by Equation (5) using PUWL (app) and hUWL (app) = 100 μm (calculated Daq (app) in Table 5). Substituting FU, Daq (app), and Daq (U) in Equation (9), the aqueous diffusivity of drug molecules bound to SLS (Daq (B)) was calculated (calculated Daq (B) in Table 5). As for triamcinolone, Daq (B) was not calculated in this study. […] As the aggregated number of SLS in aqueous solutions was reported to be 62, their micellar weight appeared to be around 18,000 Da. […] Assuming this micellar size is constant, permeability and flux could be calculated by Equation (10) and Equation (12) using the apparent solubility.
When pH 6.5 buffer is in the donor chamber, the apparent UWL thickness is expressed using Equations (2) and (6) as shown in Equation (14):(14) hUWL (app)=Daq (U)(1/Papp−1/Pm (U))

[2] = Flux measurements by MicroFlux; settings: for Papp: not told, sink conditions, average ± SD (n = 3); for Flux in pH 6.5 buffer + 0.05% SLS compared with pH 6.5 buffer: sink conditions (5 μg/mL griseofulvin, 100 μg/mL triamcinolone)
Experimental: (§1) The concentration–time profiles were determined via manual sampling from the donor chambers and acceptor chambers during flux measurements. At 0, 30, 60, 120, 240, and 360 min, 100 μL of the acceptor chamber solution was withdrawn and diluted to 100 μL (2× dilution) of 3:2 DMA:ethylene glycol (v/v). At the same time point, 400 μL of the donor chamber solution was withdrawn and filtered through a polytetrafluoroethylene (PTFE) membrane filter of 0.22 μm pose size. Then, 100 μL of the filtered solution was diluted to 100 μL (2× dilution) of 3:2 DMA:ethylene glycol (v/v). The sample concentration was determined by ultra-high-performance liquid chromatography (UHPLC).
From the obtained concentration–time profiles in the acceptor chambers, the flux (J) was calculated. The flux refers to the mass transfer through the membrane, and it is defined as the total amount of material crossing one unit area of the membrane per unit time, as described by Equation (11):(11) J (t)=1/A·dm/dt= V/A·dC(t)/dt where dm/dt (μg/mL) is the total amount of material crossing the membrane per unit time, A is the area of the membrane (1.54 cm^2), V is the volume of the acceptor chamber (20 mL), and dC(t)/dt (μg/(mL⋅min)) is the slope of the concentration–time profiles in the acceptor chambers. Time intervals were selected in each test to exclude the lag time of the concentration–time profile and calculate the initial flux. […] Based on Fick’s first law, assuming the sink condition in the acceptor chambers, the flux can be described by Equation (12):(12) J (t)=PappCD(t) where Papp is the apparent permeability of drugs and CD (t) is the drug concentration in the donor chambers.
The sample concentrations were measured on a Waters (Milford, MA) Acquity UPLC H-Class system. An Acquity UPLC® BEH Shield RP18 1.7 μm, 2.1 × 50 mm, was used for chromatographic separation. A gradient mobile phase, spanning 95:5 to 0:100 (v/v) water:MeCN (both containing 0.05%TFA) over 2.0 min, was pumped at a flow rate of 1.0 mL/min. […] The injection volume and ultraviolet (UV) wavelength for triamcinolone were 1 μL and 292 nm, respectively.

[3] = set-up: method as in PMID 17724660, PMID 8668668, PMID 1808607; settings: partitioning between octanol and water; cited from earlier work
[4] = 37 °C; cited from earlier work
physchem = settings: 37 °C, thermodynamic from solid
Experimental: as §1
(§2) The sample concentrations were measured on a Waters (Milford, MA) Acquity UPLC H-Class system. An Acquity UPLC® BEH Shield RP18 1.7 μm, 2.1 × 50 mm, was used for chromatographic separation. A gradient mobile phase, spanning 95:5 to 0:100 (v/v) water:MeCN (both containing 0.05%TFA) over 2.0 min, was pumped at a flow rate of 1.0 mL/min.

[5] = pH 6.5
Experimental: as §1, §2

[6] = set-up: method as in PMID 20006692; settings: 500 mg dose; cited from earlier work
[7] = pH 6.5, pH 6.5 buffer + 0.05% SLS, read-out: Calculated Papp (converted)
[8] = pH 6.5, pH 6.5 buffer, read-out: Calculated Papp (U) (converted)
[9] = pH 6.5, Measured Papp (U), pH 6.5 buffer
[10] = pH 6.5, Measured Papp, pH 6.5 buffer + 0.05% SLS

Structure (SMILES): C[C@]12C=CC(=O)C=C1CC[C@H]1[C@@H]3C[C@@H](O)[C@](O)(C(=O)CO)[C@@]3(C)C[C@H](O)[C@@]12F [Triamcinolone]
- Papp [1, 7]: 4.38 ×10⁻⁶ cm/s
- Papp [1, 8]: 5.07 ×10⁻⁶ cm/s
- Calculated Pm (app) ([1]; pH 6.5 buffer + 0.05% SLS): 0.0003 cm/min
- Calculated Daq (app) ([1]; pH 6.5 buffer + 0.05% SLS): 3.54 × 10^−7 cm^2/s
- Calculated Pm (U) ([1]; Equation (2)): 0.000307 cm/min
- Calculated Pm (U) ([1]; Equation (2), listed as triamcinolone): around 0.0003 cm/min
- Sample concentration in the donor chamber ([2]; 500, 2000 and 10,000 μg/mL doses (non-sink), pH 6.5 buffer and pH 6.5 buffer + 0.05% SLS): about 200 μg/mL
- Papp [2, 9]: 5.07 ×10⁻⁶ cm/s
- Papp [2, 10]: 4.38 ×10⁻⁶ cm/s
- Flux and donor concentration at the 10,000 μg/mL dose, higher than at 500 and 2000 μg/mL doses ([2]; pH 6.5 buffer + 0.05% SLS, non-sink conditions): about 10%
- Flux in pH 6.5 buffer + 0.05% SLS compared with pH 6.5 buffer [2]: almost similar values
- Log P [3]: 1.03 [40, 42]

Structure (SMILES): COC1=CC(=O)C[C@@H](C)[C@]12Oc1c(Cl)c(OC)cc(OC)c1C2=O [Griseofulvin]
- Aqueous solubility [4]: 29.9 [40, 41] μg/mL
- solubility (physchem; pH 6.5, aqueous buffer): 10.8 ± 0.38 µg/mL (≈ 30.5 µM)
- solubility (physchem; pH 6.5, aqueous with cosolvent or surfactant or cyclodextrin): 27.4 ± 0.07 µg/mL (≈ 77.7 µM)
- Apparent permeability and flux reduced to (fraction) ([1]; apparent solubility increased by 5 times): about 1/4
- Apparent permeability and flux reduced to (fraction) ([1]; apparent solubility increased by 10 times): 1/7
- Calculated Daq (B) ([1]; drug molecules bound to SLS, Equation (9)): 8.37 × 10^−7 cm^2/s
- Papp [1, 7]: 108 ×10⁻⁶ cm/s
- Papp [1, 8]: 247 ×10⁻⁶ cm/s
- Calculated PUWL (app) ([1]; pH 6.5 buffer + 0.05% SLS, Equation (2)): 0.0153 cm/min
- Calculated Pm (app) ([1]; pH 6.5 buffer + 0.05% SLS): 0.0112 cm/min
- Calculated Daq (app) ([1]; pH 6.5 buffer + 0.05% SLS): 2.56 × 10^−6 cm^2/s
- Calculated Pm (U) ([1]; Equation (2)): 0.0284 cm/min
- Solubility change by the addition of 0.05% SLS [5]: about 2.5 fold
- UFD Amount [5]: 10.75 µg/mL
- Sample concentration in the donor chamber ([2]; 50, 200 and 1000 μg/mL doses (non-sink), pH 6.5 buffer): about 10 μg/mL
- Sample concentration in the donor chamber ([2]; 50, 200 and 1000 μg/mL doses (non-sink), pH 6.5 buffer + 0.05% SLS): about 25 μg/mL
- Apparent permeability in pH 6.5 buffer + 0.05% SLS compared with pH 6.5 buffer ([2]; based on Equation (12)): almost half
- Increase of total permeated amount when the dose amount exceeded solubility ([2]; donor concentration almost constant): 20–30%
- Flux increase depending on the dose amount ([2]; non-sink conditions, both pH 6.5 buffer and pH 6.5 buffer + 0.05% SLS): 10–30%
- Papp [2, 9]: 247 ×10⁻⁶ cm/s
- Papp [2, 10]: 108 ×10⁻⁶ cm/s
- Flux in pH 6.5 buffer + 0.05% SLS compared with pH 6.5 buffer [2]: almost half
- Increase of in vivo permeability and in vivo drug absorption by solid drugs in the UWL [6]: about twofold
